In one assay the target is T1, human ACC2 (Nd) (Homo sapiens, UniProt O00763).
T1 construct: His6 (from vector pFAST-BacHTa); made in house; host or cells: SF-9 insect cells, recombinant baculovirus BAC-ACC2 (Nd)
Nature of the assay: ACC2 inhibitory activity (malachite green). The assay is classed as biochemical. As to conditions: test compound 10 μM; read-out: ACC2 10 μM inhibitory rate (%). The method, then: The ACC2 inhibitory action of the compound of the present invention was evaluated by the following method.
(1) Cloning of Human ACC2 Gene and Preparation of Recombinant Baculovirus
Human ACC2 gene was cloned by PCR using a human skeletal muscle cDNA library (Clontech) as a template and Primer 1 and Primer 2 shown below. Primer 1 and Primer 2 were prepared by adding SalI, XbaI restriction enzyme recognition sequences based on the information of the base sequence of human ACC2 gene (Genbank Accession U89344).
PCR was performed using Pyrobest DNA polymerase (TAKARA BIO INC.). The obtained PCR product was cloned to pT7 Blue vector (Novagen) and, after confirmation of the base sequence, digested with restriction enzymes SalI and XbaI. The obtained DNA fragment was inserted into pFAST-BacHTa (Invitrogen) digested with restriction enzymes SalI and XbaI to give expression plasmid ACC2/pFAST-BacHTa.
A plasmid for expression of ACC2 without a mitochondrial targeting sequence was prepared by PCR using the expression plasmid as a template, and Primer 3 (SalI restriction enzyme recognition sequence was added) and Primer 4 prepared by reference to the information of human ACC2 gene base sequence (Genbank Accession U89344).
PCR was performed using Pyrobest-DNA polymerase (TAKARA BIO INC.). The obtained PCR product was cloned to pT7 Blue vector (Novagen) and, after confirmation of the base sequence, digested with restriction enzymes SalI and AflII. The obtained DNA fragment was inserted into ACC2/pFAST-BacHTa digested with restriction enzymes SalI and AflII to give expression plasmid ACC2mito7/pFAST-BacHTa.
Using the expression plasmid ACC2mito7/pFAST-BacHTa and BAC-TO-BAC Baculovirus Expression System (Invitrogen), virus stock BAC-ACC2 of recombinant Baculovirus (N terminal deleted (hereinafter Nd)) was prepared.
(2) Preparation of ACC2 (Nd) Protein
SF-9 cells (Invitrogen) were inoculated to a medium (2 L) for insect cells (Sf-900IISFM medium (Invitrogen) containing 10% fetal bovine serum (Trace), 50 mg/L Gentamicin (Invitrogen), 0.1% Pluronic F-68 (Invitrogen)) at 0.5×10^6 cells/mL, and cultured with shaking in Wave Bioreactor (Wave) at 27° C., 20 rpm, rocking angle 6°, oxygen concentration 30%.
On day 4 of the culture, 3 L of the medium for insect cells was added, the rocking angle was set to 8°, and the cells were cultured. On day 5 of the culture, 100 ml of recombinant Baculovirus BAC-ACC2 (Nd) was added, 5 L of the medium for insect cells was further added, the rocking angle was set to 11°, and the cells were cultured for 3 days. The culture medium was centrifuged at 1000×g for 10 min to give virus-infected cells. The cells were washed with phosphate buffered saline (Invitrogen) and centrifuged under the same conditions. The obtained cells were cryopreserved at −80° C.
The cryopreserved cells were thawed in ice and suspended in 900 ml of 25 mM HEPES buffer (pH 7.5) containing 10% Glycerol, 0.13 M NaCl, 1 mM EDTA, 25 mM Sodium β-Glycerophosphate and 1 mM Sodium Orthovanadate, and supplemented with Complete Protease Inhibitor (Nippon Boehringer Ingelheim Co., Ltd.). The obtained suspension was homogenized three times in a polytron homogenizer (Kinematica) at 20,000 rpm for 30 sec. The obtained cell disruption solution was clarified by centrifugation at 31000×g for 60 min, and filtered through a 0.45 μm filter. The filtrate was passed through a column packed with 60 mL of Ni-NTA Super Flow Gel (QUIAGEN) at a flow rate of about 5 mL/min. The column was washed with buffer A (50 mM HEPES (pH 7.5) containing 0.3 M NaCl), further washed with buffer A containing 20 mM Imidazole, and eluted with buffer A containing 100 mM Imidazole. The eluate was concentrated with Vivaspin 20 (Vivascience) with a molecular weight cut off of 30K. The obtained concentrate was dialyzed against 50 mM HEPES (pH 7.5) containing 10 mM MgCl2, 2 mM Dithiothreitol, 10 mM Tripotassium Citrate and 0.3 M NaCl. The inner dialysate was filtered through a 0.22 μm filter to give ACC2 (Nd). […]

The target in the next assay is T2, human ACC1 (Homo sapiens, UniProt Q13085).
T2 construct: His6 (from vector pFAST-BacHTc); made in house; host or cells: SF-9 insect cells, recombinant baculovirus BAC-ACC1
Nature of the assay: ACC1 inhibitory activity (malachite green). The format is biochemical. The settings on record: test compound 10 μM; read-out: ACC1 10 μM inhibitory rate (%). The method, then:
The ACC1 inhibitory action of the compound of the present invention was evaluated by the following method.
(1) Cloning of Human ACC1 Gene and Preparation of Recombinant Baculovirus
Human ACC1 gene was cloned by PCR using a human liver cDNA library (Clontech) as a template and Primer 1 and Primer 2 shown below. Primer 1 and Primer 2 were prepared by adding SalI, NotI restriction enzyme recognition sequences based on the information of the base sequence of human ACC1 gene (Genbank Accession U19822).
PCR was performed using Pyrobest DNA polymerase (TAKARA BIO INC.). The obtained PCR product was cloned to pT7 Blue vector (Novagen) and, after confirmation of the base sequence, digested with restriction enzymes SalI and NotI. The obtained DNA fragment was inserted into pFAST-BacHTc (Invitrogen) digested with restriction enzymes SalI and NotI to give expression plasmid ACC1/pFAST-BacHTc.
Using the expression plasmid ACC1/pFAST-BacHTc and BAC-TO-BAC Baculovirus Expression System (Invitrogen), virus stock BAC-ACC1 of recombinant Baculovirus was prepared.
(2) Preparation of ACC1 Protein
SF-9 cells (Invitrogen) were inoculated to a medium (1 L) for insect cells (Sf-900IISFM medium (Invitrogen) containing 10% fetal bovine serum (Trace), 50 mg/L Gentamicin (Invitrogen), 0.1% Pluronic F-68 (Invitrogen)) at 1×10^6 cells/mL, and cultured with shaking in 2 L meyer at 27° C., 100 rpm.
After 24 hr of the culture, 10 mL of recombinant Baculovirus BAC-ACC1 was added, and the cells were cultured for 3 days. The culture medium was centrifuged at 1000×g for 5 min to give virus-infected cells. The cells were washed with phosphate buffered saline (Invitrogen) and centrifuged under the same conditions. The obtained cells were cryopreserved at −80° C.
The cryopreserved cells were thawed in ice and suspended in 100 mL of 25 mM HEPES buffer (pH 7.5) containing 10% Glycerol, 0.13 M NaCl, 1 mM EDTA, 25 mM Sodium […] and 1 mM Sodium Orthovanadate, and supplemented with Complete Protease Inhibitor (Nippon Boehringer Ingelheim Co., Ltd.). The obtained suspension was homogenized three times in a polytron homogenizer (Kinematica) at 20,000 rpm for 30 sec. The obtained cell disruption solution was clarified by centrifugation at 185700×g for 50 min, and filtered through a 0.45 μm filter. The filtrate was passed through a column packed with 12 ml of Ni-NTA Super Flow Gel (QUIAGEN) at a flow rate of about 5 mL/min. The column was washed with buffer A (50 mM HEPES (pH 7.5) containing 0.3 M NaCl), further washed with buffer A containing 20 mM Imidazole, and eluted with buffer A containing 100 mM Imidazole. The eluate was concentrated with Vivaspin 20 (Vivascience) with a molecular weight cut off of 30K. The obtained concentrate was dialyzed against Sephadex G-25 (Amersham Biosciences, 358 mL) equilibrated with 50 mM HEPES (pH 7.5) containing 10 mM MgCl2, 2 mM Dithiothreitol, 10 mM Tripotassium Citrate and 0.3 M NaCl. The inner dialysate was concentrated with Vivaspin 20 (Vivascience) with molecular weight cut off of 30K, and concentrate was filtered through a 0.22 μm filter to give ACC1. The obtained ACC1 was cryopreserved at −80° C.
(3) Measurement of ACC1 Inhibitory Activity
ACC1 (0.93 mg/ml) obtained in the above-mentioned (2) was diluted with an enzyme reaction buffer (50 mM HEPES (pH 7.5), 10 mM MgCl2, 10 mM Tripotassium Citrate, 2 mM Dithiothreitol, 0.75 mg/ml Fatty acid free BSA) to a concentration of 8 μg/ml, and the mixture was added to each well of a 384 well assay plate (Nunc 265196) by 10 μl. A test compound was dissolved in dimethyl sulfoxide (DMSO) and the mixture was diluted with an enzyme reaction buffer and the resulting solution (5 μl) was added to each well. The mixture was incubated at 30° C. for 60 min. Then, a substrate solution (50 mM KHCO3, 200 μM ATP, 200 μM Acetyl-CoA, 5 μl) was added to each well, and the mixture was reacted at 30° C. for 20 min (test compound addition group). […]

Inhibition data for 13 compounds are collected here from patent US8501804B2, “Bicyclic compound” (Takeda Pharmaceutical Company Limited, priority 2008, dated 2013).

T1 sequence (O00763 117-2458 limits assumed): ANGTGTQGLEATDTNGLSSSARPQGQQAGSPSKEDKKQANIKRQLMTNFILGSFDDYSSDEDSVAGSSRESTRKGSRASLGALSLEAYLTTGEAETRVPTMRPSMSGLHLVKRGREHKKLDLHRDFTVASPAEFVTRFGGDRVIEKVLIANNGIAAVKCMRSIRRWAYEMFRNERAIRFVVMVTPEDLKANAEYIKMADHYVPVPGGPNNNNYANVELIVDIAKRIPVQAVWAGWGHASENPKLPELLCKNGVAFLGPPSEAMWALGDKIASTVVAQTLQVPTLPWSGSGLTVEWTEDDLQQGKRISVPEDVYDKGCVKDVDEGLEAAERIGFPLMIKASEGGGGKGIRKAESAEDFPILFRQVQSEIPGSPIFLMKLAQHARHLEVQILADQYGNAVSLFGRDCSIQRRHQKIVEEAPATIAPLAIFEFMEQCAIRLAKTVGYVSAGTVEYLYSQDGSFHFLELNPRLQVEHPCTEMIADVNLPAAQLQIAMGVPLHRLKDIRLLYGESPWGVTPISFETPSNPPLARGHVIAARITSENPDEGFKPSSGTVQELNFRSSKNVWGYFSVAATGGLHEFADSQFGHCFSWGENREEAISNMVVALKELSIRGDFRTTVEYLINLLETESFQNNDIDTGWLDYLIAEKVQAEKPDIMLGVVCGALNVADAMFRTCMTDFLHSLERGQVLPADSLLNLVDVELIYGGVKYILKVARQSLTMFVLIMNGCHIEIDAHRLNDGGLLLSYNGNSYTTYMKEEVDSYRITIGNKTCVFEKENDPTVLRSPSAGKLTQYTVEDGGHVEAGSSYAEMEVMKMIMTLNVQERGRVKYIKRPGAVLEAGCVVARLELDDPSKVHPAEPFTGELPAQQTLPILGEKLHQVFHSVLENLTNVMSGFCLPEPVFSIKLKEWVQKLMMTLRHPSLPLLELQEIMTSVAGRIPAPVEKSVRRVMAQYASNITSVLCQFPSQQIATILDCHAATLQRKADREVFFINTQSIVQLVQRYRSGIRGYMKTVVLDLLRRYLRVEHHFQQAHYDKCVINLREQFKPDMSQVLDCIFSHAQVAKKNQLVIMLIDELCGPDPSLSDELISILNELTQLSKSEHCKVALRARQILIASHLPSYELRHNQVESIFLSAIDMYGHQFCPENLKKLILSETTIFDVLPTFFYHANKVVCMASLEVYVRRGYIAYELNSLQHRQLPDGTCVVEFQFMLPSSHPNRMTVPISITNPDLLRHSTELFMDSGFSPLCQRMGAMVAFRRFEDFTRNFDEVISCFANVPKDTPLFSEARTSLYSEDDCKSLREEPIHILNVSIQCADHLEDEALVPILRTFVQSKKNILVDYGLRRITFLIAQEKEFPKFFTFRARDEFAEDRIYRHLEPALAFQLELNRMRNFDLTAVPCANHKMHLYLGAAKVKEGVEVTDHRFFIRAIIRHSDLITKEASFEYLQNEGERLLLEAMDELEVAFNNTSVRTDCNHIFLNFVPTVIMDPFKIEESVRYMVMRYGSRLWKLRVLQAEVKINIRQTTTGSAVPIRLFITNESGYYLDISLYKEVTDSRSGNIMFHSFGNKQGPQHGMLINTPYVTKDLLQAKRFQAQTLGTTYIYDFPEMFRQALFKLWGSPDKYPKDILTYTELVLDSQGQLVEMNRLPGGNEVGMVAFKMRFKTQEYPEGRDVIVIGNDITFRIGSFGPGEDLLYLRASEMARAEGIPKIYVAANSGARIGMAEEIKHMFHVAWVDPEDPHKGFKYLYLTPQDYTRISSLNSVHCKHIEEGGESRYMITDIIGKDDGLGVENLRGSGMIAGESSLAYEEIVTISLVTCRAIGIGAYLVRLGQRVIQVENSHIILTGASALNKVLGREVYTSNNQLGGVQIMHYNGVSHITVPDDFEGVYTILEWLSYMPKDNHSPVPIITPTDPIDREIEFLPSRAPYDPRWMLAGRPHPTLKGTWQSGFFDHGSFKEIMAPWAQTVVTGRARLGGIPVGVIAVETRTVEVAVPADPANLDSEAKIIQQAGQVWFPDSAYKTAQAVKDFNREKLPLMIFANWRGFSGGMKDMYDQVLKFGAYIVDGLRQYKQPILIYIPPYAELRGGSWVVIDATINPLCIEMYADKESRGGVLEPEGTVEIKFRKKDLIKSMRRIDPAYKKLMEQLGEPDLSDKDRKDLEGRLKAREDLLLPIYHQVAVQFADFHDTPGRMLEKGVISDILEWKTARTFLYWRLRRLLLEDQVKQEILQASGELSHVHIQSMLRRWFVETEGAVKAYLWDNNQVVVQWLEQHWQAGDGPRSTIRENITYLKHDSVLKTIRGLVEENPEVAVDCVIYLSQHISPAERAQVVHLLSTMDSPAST

Turning to `CC(=O)N[C@@H](C)[C@@H]1Cc2ccc(OCc3ccc(OCC4CC4)nc3F)cc2O1` [Example 143, N-{(1S)-1-[(2S)-6-{[6-(cyclopropylmethoxy)-2-fluoropyridin-3-yl]methoxy}-2,3-dihydro-1-benzofuran-2-yl]ethyl}acetamide], the inhibition at 10 µM was determined as 73% on human ACC2 (Nd) and 8% on human ACC1.
On the same counts, the results for `CCOc1ccc(COc2ccc3oc(C(C)NC(C)=O)cc3c2)c(F)c1` (centres unmarked) [Example 48, N-(1-{5-[(2-fluoro-4-ethoxybenzyl)oxy]-1-benzofuran-2-yl}ethyl)acetamide] are 78% and 10%.
In the case of `CCCOc1ccc(C#Cc2ccc3c(c2)O[C@H]([C@H](C)NC(C)=O)C3)cc1` [Example 115, N-[(1S)-1-{(2S)-6-[(4-propoxyphenyl)ethynyl]-2,3-dihydro-1-benzofuran-2-yl}ethyl]acetamide], the inhibition at 10 µM was 76% at human ACC2 (Nd) and 25% at human ACC1.
In the same order, the values of `CC(=O)N[C@@H](C)[C@@H]1Cc2ccc(OCc3ccc(OCC4CC4)cc3)cc2O1` [Example 144, N-{(1S)-1-[(2S)-6-{[4-(cyclopropylmethoxy)benzyl]oxy}-2,3-dihydro-1-benzofuran-2-yl]ethyl}acetamide] are 88% and 48%.
Turning to `CC(=O)NC(C)c1cc2ccc(CCc3ccc(OC4CCCC4)cc3)cc2o1` (centres unmarked) [Example 170, N-[1-(6-{2-[4-(cyclopentyloxy)phenyl]ethyl}-1-benzofuran-2-yl)ethyl]acetamide], the inhibition at 10 µM at human ACC2 (Nd) came to 84%; on human ACC1, 30%.
On the same counts, the results for `CCOc1ccc(COc2ccc3sc(C(C)NC(C)=O)cc3c2)cc1` (centres unmarked) [Example 39, N-(1-{5-[(4-ethoxybenzyl)oxy]-1-benzothiophen-2-yl}ethyl)acetamide] are 80% and 17%.
Take `CC(=O)NC(C)c1cc2cc(OCc3cnc(OCC4CC4)cc3F)ccc2o1` (centres unmarked) [Example 154, N-[1-(5-{[6-(cyclopropylmethoxy)-4-fluoropyridin-3-yl]methoxy}-1-benzofuran-2-yl)ethyl]acetamide]: the figures for the inhibition at 10 µM on human ACC2 (Nd) and on human ACC1 were 78% and 39%, respectively.
On the same counts, the results for `CC(=O)N[C@@H](C)[C@@H]1Cc2ccc(OCc3ccc(OC[C@@H]4CCCO4)cc3F)cc2O1` [Example 146, N-{(1S)-1-[(2S)-6-({2-fluoro-4-[(2S)-tetrahydrofuran-2-ylmethoxy]benzyl}oxy)-2,3-dihydro-1-benzofuran-2-yl]ethyl}acetamide] are 84% and 40%.
As for `CC(=O)NC(C)c1cc2ccc(CCc3ccc(OCCC4CC4)cc3)cc2o1` (centres unmarked) [Example 174, N-[1-(6-{2-[4-(2-cyclopropylethoxy)phenyl]ethyl}-1-benzofuran-2-yl)ethyl]acetamide], the figures for the inhibition at 10 µM at human ACC2 (Nd) and at human ACC1 were 80% and 34%, respectively.
In the same order, the values of `COCOc1ccc(CCc2ccc3cc(C(C)NC(C)=O)oc3c2)cc1` (centres unmarked) [Example 95, N-[1-(6-{2-[4-(methoxymethoxy)phenyl]ethyl}-1-benzofuran-2-yl)ethyl]acetamide] are 80% and 43%.
In the same order, the values of `CCOc1ccc(COc2ccc3oc(C(C)NC(C)=O)nc3c2)cc1` (centres unmarked) [Example 42, N-(1-{5-[(4-ethoxybenzyl)oxy]-1,3-benzoxazol-2-yl}ethyl)acetamide] are 76% and 1%.
For `CCCCOc1ccc(CCc2ccc3cc(C(C)NC(C)=O)oc3c2)cc1` (centres unmarked) [Example 44, N-(1-{6-[2-(4-butoxyphenyl)ethyl]-1-benzofuran-2-yl}ethyl)acetamide], the values for the inhibition at 10 µM on human ACC2 (Nd) and on human ACC1 were 78% and 35%, respectively.
In the same order, the values of `CC(=O)N[C@@H](C)[C@@H]1Cc2ccc(C#Cc3ccc(OCC4CC4)nc3)cc2O1` [Example 139, N-{(1S)-1-[(2S)-6-{[6-(cyclopropylmethoxy)pyridin-3-yl]ethynyl}-2,3-dihydro-1-benzofuran-2-yl]ethyl}acetamide] are 100% and 37%.
